The record followed here is patent US20050192279A1, “Pyridazinones as antagonists of alpha4 integrins” (priority 2004, published 2005).

In one assay the target is T1, α4β1 (Homo sapiens, UniProt P05556+P13612).
T1 construct: Ramos Cell Adhesion Assay (α4β1 Mediated Adhesion/VCAM-1); endogenous in cells; host or cells: Ramos cells
As to the kind of experiment: Ramos Cell Adhesion Assay (α4β1 Mediated Adhesion/VCAM-1). The assay is classed as cell-based. To be noted: Ramos cell adhesion to hVCAM-1; read-out: α4β1 IC50. An outline of the steps:
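Plates coated overnight at 4° C with recombinant hVCAM-1 at 4.0 μg/mL, pH 9.0, then blocked in PBS/1% BSA. Calcein AM-labeled Ramos cells added with compounds and left to adhere 1 h at room temperature; after washing, cells lysed in 1 M Tris pH 8.0/1% SDS.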

The target in the next assay is T2, human α4β7 integrin (Homo sapiens, UniProt P13612+P26010).
T2 construct: expressed in transfected cells; host or cells: K562 cells, stably transfected
T2 sequence (P13612 34-1032): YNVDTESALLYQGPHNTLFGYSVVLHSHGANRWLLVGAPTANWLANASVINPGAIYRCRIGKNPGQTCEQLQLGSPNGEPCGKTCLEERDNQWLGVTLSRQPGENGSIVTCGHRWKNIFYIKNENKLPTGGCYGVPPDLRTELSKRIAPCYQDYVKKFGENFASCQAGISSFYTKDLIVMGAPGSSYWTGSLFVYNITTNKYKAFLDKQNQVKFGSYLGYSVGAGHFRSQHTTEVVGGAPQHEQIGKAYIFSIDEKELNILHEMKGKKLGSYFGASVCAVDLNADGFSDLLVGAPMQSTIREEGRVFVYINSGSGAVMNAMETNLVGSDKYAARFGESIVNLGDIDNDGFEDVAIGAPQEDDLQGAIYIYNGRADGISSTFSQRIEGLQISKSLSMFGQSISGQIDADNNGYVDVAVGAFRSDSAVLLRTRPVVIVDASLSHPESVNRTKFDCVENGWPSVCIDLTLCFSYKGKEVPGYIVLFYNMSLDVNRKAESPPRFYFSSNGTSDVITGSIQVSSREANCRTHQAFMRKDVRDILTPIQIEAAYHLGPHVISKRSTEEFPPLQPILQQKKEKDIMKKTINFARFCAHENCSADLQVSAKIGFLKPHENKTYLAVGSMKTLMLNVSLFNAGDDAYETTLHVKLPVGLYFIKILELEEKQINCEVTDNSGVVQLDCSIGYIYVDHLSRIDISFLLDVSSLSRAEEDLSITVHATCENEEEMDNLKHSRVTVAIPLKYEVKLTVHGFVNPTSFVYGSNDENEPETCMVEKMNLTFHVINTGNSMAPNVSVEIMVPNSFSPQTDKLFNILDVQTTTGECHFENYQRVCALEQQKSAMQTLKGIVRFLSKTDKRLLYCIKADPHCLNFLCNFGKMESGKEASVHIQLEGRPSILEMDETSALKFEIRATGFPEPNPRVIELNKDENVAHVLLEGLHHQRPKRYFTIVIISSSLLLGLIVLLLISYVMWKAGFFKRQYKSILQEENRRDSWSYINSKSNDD
T2 sequence (P26010 20-798): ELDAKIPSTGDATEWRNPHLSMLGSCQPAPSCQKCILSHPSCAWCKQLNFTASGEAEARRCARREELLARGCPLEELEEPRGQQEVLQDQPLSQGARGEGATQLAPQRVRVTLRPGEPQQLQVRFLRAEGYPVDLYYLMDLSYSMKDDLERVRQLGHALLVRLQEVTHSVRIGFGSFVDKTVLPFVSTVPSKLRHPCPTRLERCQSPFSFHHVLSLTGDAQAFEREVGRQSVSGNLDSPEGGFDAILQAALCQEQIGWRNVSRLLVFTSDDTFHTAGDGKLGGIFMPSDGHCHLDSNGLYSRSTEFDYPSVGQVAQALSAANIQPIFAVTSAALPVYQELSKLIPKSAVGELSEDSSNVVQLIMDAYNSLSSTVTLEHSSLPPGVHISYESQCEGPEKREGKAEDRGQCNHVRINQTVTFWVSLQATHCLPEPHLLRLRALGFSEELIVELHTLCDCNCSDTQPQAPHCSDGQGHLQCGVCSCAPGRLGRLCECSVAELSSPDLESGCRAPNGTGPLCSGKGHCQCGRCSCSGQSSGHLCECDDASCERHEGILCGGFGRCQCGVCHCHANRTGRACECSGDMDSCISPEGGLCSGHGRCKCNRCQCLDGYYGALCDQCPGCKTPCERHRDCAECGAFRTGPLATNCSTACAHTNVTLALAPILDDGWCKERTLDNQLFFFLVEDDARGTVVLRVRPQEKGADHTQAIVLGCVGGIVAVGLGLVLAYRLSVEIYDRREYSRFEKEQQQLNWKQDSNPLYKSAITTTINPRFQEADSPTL
Briefly: α4β7-K562 Cell Adhesion Assay (α4β7 Mediated Adhesion/MAdCAM-1). Format: cell-based. To be noted: α4β7-K562 cell adhesion to hMAdCAM-1; read-out: α4β7 IC50. An outline of the steps: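 Anti-FLAG plates coated 1 h at 4° C with FLAG-hMAdCAM-1 in PBS pH 7.4, 1% BSA, 1 mM Mn2+. Stably transfected K562 cells expressing human α4β7, labelled with CFDA-SE, adhered with compound 1 h at room temperature. After four washes, bound cells lysed in 0.1 M NaOH for fluorescence read-out.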

T1 sequence (P05556 21-798, one chain of several): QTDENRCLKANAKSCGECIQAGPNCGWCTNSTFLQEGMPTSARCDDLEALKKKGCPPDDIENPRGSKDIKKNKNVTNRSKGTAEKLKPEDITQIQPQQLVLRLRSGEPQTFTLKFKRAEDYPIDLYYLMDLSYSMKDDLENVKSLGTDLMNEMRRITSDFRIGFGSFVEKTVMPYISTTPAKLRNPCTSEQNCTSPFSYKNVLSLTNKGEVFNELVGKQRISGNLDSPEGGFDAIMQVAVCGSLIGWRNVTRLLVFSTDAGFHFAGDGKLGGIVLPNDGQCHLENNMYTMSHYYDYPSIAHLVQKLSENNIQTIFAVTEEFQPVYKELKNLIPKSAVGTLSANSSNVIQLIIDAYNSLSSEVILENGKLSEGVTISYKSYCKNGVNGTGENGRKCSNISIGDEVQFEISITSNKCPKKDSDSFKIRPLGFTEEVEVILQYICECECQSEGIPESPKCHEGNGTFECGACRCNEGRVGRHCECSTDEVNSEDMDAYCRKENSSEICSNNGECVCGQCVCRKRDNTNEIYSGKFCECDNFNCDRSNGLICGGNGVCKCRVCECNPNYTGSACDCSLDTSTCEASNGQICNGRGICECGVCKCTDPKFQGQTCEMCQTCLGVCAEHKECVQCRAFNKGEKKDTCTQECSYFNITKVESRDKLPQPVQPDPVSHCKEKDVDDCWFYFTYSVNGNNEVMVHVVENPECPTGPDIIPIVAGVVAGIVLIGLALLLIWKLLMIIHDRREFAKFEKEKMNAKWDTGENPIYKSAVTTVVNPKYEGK

The term IC50 denotes the concentration that inhibits the measured activity by half. Turning to `COC(=O)[C@H](Cc1ccc(-c2c(OC)cnn(C)c2=O)cc1)NC(=O)[C@@H]1C2CCC(CC2)N1C(=O)CCc1ccccc1` [Cpd 182], the IC50 at α4β1 is greater than 1000 nM; on human α4β7 integrin, 785 nM.
Regarding `COc1cnn(C)c(=O)c1-c1ccc(C[C@H](NC(=O)OC(C)C)C(=O)O)cc1` [Cpd 184], the IC50 on α4β1 was greater than 5000 nM; at human α4β7 integrin it was 813 nM.
For `COc1cnn(C)c(=O)c1-c1ccc(C[C@H](NC(=O)C(C)(C)O)C(=O)O)cc1` [Cpd 185] the same measures were greater than 5000 nM and 817 nM.
For `COc1cnn(C)c(=O)c1-c1ccc(C[C@H](NC(=O)C2(C(=O)OC(C)(C)C)CCOCC2)C(=O)O)cc1` [Cpd 186] the same measures were 1530 nM and 842 nM.
For `COc1cnn(C)c(=O)c1-c1ccc(C[C@H](NC(=O)c2n[nH]c3ccccc23)C(=O)O)cc1` [Cpd 187] the same measures were greater than 5000 nM and 865 nM.
Regarding `COc1cc(N)c(Cl)cc1C(=O)N[C@@H](Cc1ccc(-c2c(OC)cnn(C)c2=O)cc1)C(=O)O` [Cpd 188], the IC50 was greater than 5000 nM on α4β1 and 922 nM at human α4β7 integrin.
Consider `COc1cnn(C)c(=O)c1-c1ccc(C[C@H](NC(=O)[C@@H](NC2CCCCC2)C(C)C)C(=O)O)cc1` [Cpd 189], for which the results for the IC50 at α4β1 and on human α4β7 integrin were greater than 5000 nM and 937 nM, respectively.
`Cn1ncc(N)c(-c2ccc(C[C@H](NC(=O)OC(C)(C)C)C(=O)O)cc2)c1=O` [Cpd 190]: the values for the IC50 on α4β1 and on human α4β7 integrin were greater than 5000 nM and 979 nM, respectively.
For `COc1cnn(C)c(=O)c1-c1ccc(C[C@H](NC(=O)c2cccnc2O)C(=O)O)cc1` [Cpd 191] the same measures were greater than 5000 nM and 999 nM.
The like results for `COc1cnn(C)c(=O)c1-c1ccc(C[C@H](NC(=O)c2cccn(C)c2=O)C(=O)O)cc1` [Cpd 193] were, in that order, greater than 5000 nM and 1160 nM.
On to `COc1cnn(CCO)c(=O)c1-c1ccc(C[C@@H](CO)NC(=O)c2c(Cl)cccc2Cl)cc1` [Cpd 194], for which the IC50 is greater than 5000 nM at α4β1 and 1220 nM at human α4β7 integrin.
`Cc1ccc(Oc2cnn(C(C)(C)C)c(=O)c2-c2ccc(C[C@H](NC(=O)c3c(Cl)cccc3Cl)C(=O)O)cc2)cc1` [Cpd 196, (S)-3-[4-(2-tert-Butyl-3-oxo-5-p-tolyloxy-2,3-dihydro-pyridazin-4-yl)-phenyl]-2-(2,6-dichloro-benzoylamino)-propionic acid]: the IC50 was greater than 5000 nM at α4β1 and 1290 nM on human α4β7 integrin.
For `Nc1cnn(-c2ccccc2)c(=O)c1-c1ccc(C[C@H](NC(=O)c2c(Cl)cccc2Cl)C(=O)O)cc1` [Cpd 197] the same measures were greater than 1000 nM and 1320 nM.
For `COc1cnn(C)c(=O)c1-c1ccc(C[C@H](NC(=O)C2CCNCC2)C(=O)O)cc1` [Cpd 198] the same measures were greater than 5000 nM and 1340 nM.
The like results for `COc1cnn(C)c(=O)c1-c1ccc(C[C@H](NC(=O)OCc2cccs2)C(=O)O)cc1` [Cpd 201] were, in that order, greater than 5000 nM and 1440 nM.
Turning to `COc1cnn(C)c(=O)c1-c1ccc(C[C@H](NC(=O)C2CCN(C(=O)OC(C)(C)C)CC2)C(=O)O)cc1` [Cpd 202], the IC50 is greater than 5000 nM on α4β1 and 1480 nM at human α4β7 integrin.
The like results for `COc1cnn(C)c(=O)c1-c1ccc(C[C@H](NC(=O)OCc2c(C)cc(C)cc2C)C(=O)O)cc1` [Cpd 203] were, in that order, greater than 5000 nM and 1780 nM.
The like results for `COc1cnn(C)c(=O)c1-c1ccc(C[C@H](NC(=O)OCc2c(Cl)cccc2Cl)C(=O)O)cc1` [Cpd 204] were, in that order, greater than 5000 nM and 1870 nM.
For `COc1cnn(C)c(=O)c1-c1ccc(C[C@H](NC(=O)c2cnc[nH]2)C(=O)O)cc1` [Cpd 205] the same measures were greater than 5000 nM and 2320 nM.
As for `COc1cnn(C)c(=O)c1-c1ccc(C[C@H](NC(=O)CCC(C)(C)C)C(=O)O)cc1` [Cpd 206], the IC50 at α4β1 was determined as 3300 nM; on human α4β7 integrin, 2550 nM.
Consider `COc1cnn(C)c(=O)c1-c1ccc(C[C@H](NC(=O)OC2CCCCC2)C(=O)O)cc1` [Cpd 208], for which the figures for the IC50 on α4β1 and on human α4β7 integrin were greater than 5000 nM and 2760 nM, respectively.
The like results for `COc1cnn(C)c(=O)c1-c1ccc(C[C@H](NC(=O)O[C@H](C)c2ccccc2)C(=O)O)cc1` [Cpd 209] were, in that order, greater than 5000 nM and 3140 nM.
For `COc1cnn(CCN2CCOCC2)c(=O)c1-c1ccc(C[C@H](NC(=O)[C@H](N)C(C)C)C(=O)O)cc1` [Cpd 210] the same measures were greater than 5000 nM and 4650 nM.
`COc1cnn(C)c(=O)c1-c1ccc(CC(NC(=O)C(C(C)C)n2c(C)cc(C(=O)c3ccccc3)c2C)C(=O)O)cc1` (centres unmarked) [Cpd 211, 2-[2-(3-Benzoyl-2,5-dimethyl-pyrrol-1-yl)-3-methyl-butyrylamino]-[4-(5-methoxy-2-methyl-3-oxo-2,3-dihydro-pyridazin-4-yl)-phenyl]-propionic acid]: the concentration for half-maximal inhibition (IC50) at α4β1 was greater than 5000 nM; on human α4β7 integrin it was 529 nM.
Take `COc1cnn(CCO)c(=O)c1-c1ccc(C[C@H](NC(=O)OC(C)(C)C)C(=O)OCCO)cc1` [Cpd 212]: the IC50 at α4β1 and on human α4β7 integrin was greater than 5000 nM throughout.
Consider `COc1cnn(C)c(=O)c1-c1ccc(CC(NC(=O)C(C(C)C)n2c(C)ccc2C)C(=O)O)cc1` (centres unmarked) [Cpd 213], for which the IC50 on α4β1 stood at 2880 nM; at human α4β7 integrin it was 264 nM.
For `COc1cnn(C)c(=O)c1-c1ccc(CC(NC(=O)C(C(C)C)n2c(C)ccc2C)C(=O)O)cc1` (centres unmarked) [Cpd 214] the same measures were 1070 nM and 23 nM.
For `COc1cnn(C)c(=O)c1-c1ccc(CC(NC(=O)C(C(C)C)n2c(C)ccc2C)C(=O)O)cc1` (centres unmarked) [Cpd 215] the same measures were greater than 5000 nM and 305 nM.
For `COc1cnn(C)c(=O)c1-c1ccc(C[C@H](NC(=O)C2(O)CC2)C(=O)O)cc1` [Cpd 217] the same measures were greater than 5000 nM and 640 nM.
In the case of `COc1cnn(C)c(=O)c1-c1ccc(C[C@H](NC(=O)C(C)(C)NC(C)C)C(=O)O)cc1` [Cpd 218], the results for the IC50 on α4β1 and at human α4β7 integrin were greater than 5000 nM and 239 nM, respectively.
For `COc1cnn(C)c(=O)c1-c1ccc(C[C@H](NC(=O)NC2CCCCC2)C(=O)O)cc1` [Cpd 219] the same measures were greater than 5000 nM and 852 nM.
For `COc1cnn(C)c(=O)c1-c1ccc(C[C@H](NC(=O)C(C)(C)NC2CCC3(CC2)OCCO3)C(=O)O)cc1` [Cpd 220] the same measures were greater than 5000 nM and 263 nM.
For `CNC(C)(C)C(=O)N[C@@H](Cc1ccc(-c2c(OC)cnn(C)c2=O)cc1)C(=O)O` [Cpd 221] the same measures were greater than 5000 nM and 380 nM.
In the case of `COc1cnn(C)c(=O)c1-c1ccc(C[C@H](NC(=O)C2(NC(=O)OC(C)(C)C)CCCCC2)C(=O)O)cc1` [Cpd 222], the IC50 was greater than 5000 nM on α4β1 and 401 nM at human α4β7 integrin.
